In one test the test system is human PBMCs. As to the kind of experiment: CD3/CD28 stimulated IL-2 release NECA reversal assay in human PBMCs.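 Further: dose-response as % inhibition where 100% equals no-NECA control wells with CD3/CD28.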 The settings on record: PBMC, CD3/CD28 antibody stimulated, 1 uM NECA, 24 hours, IL-2 in culture supernatant. It counts as cell-based. The gist of the method: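 PBMCs from citrated donor blood, 50,000 cells/well on plate-bound CD3 antibody (1 ug/ml), with 1 ug/ml CD28 antibody, 1 uM NECA and antagonist at 0.003-10 μM final. After 24 h at 37° C, supernatant IL-2 was measured by MSD immunoassay.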

Test [1] deals with T1, human Adenosine A2a receptor (Homo sapiens, UniProt P29274).
T1 construct: expressed in transfected cells; host or cells: CHO cell membranes
Briefly: Adenosine receptor TR-FRET binding assay (CA200645 displacement), A2a. The settings on record: 100 nM CA200645, CHO cell membranes, 2 hours at room temperature. (Time-resolved FRET reads energy transfer from a long-lived donor to a nearby acceptor.)

Test [2] deals with T2, human Adenosine A3 receptor (Homo sapiens, UniProt P0DMS8).
T2 sequence (P0DMS8 1-318): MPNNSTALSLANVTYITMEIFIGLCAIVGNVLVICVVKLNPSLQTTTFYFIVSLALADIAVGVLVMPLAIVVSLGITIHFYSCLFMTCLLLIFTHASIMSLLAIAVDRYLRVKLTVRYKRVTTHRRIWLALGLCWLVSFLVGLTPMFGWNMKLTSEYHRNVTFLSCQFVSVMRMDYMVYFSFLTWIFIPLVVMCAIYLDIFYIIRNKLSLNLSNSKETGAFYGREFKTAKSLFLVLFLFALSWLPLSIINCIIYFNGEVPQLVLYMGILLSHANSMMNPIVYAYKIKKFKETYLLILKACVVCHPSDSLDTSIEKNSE
Briefly: Adenosine receptor TR-FRET binding assay (CA200645 displacement), A3.

The subject of test [3] is CD8+ T cells in human whole blood. Briefly: Measurement of pCREB in CD8+ T cells in human whole blood. The conditions noted are these: T-cell, 1 h; heparinised human whole blood, rolipram, 3 μM NECA, 60 min, phospho-CREB in CD8+ T cells by FACS. It counts as cell-based. The protocol:
Heparinised human whole blood was pre-incubated at 37° C. with serial dilutions of A2a antagonists for 20 min. and the phosphodiesterase inhibitor rolipram to amplify the pCREB response. The adenosine receptor agonist NECA is then added at a final concentration of 3 μM and following a 60 min incubation the blood is fixed and red blood cells lysed. White blood cells are isolated, permeabilized and stained with directly conjugated fluorescent antibodies to phospho-CREB (Alexa Fluor 488) and CD8 (Alexa Fluor 647) and the level of phospho-CREB in CD8+ T cells is measured by FACS using a BD Accuri C6 Flow Cytometer.

The target in test [4] is T3, human Adenosine A2b receptor (Homo sapiens, UniProt P29275).
T3 construct: expressed in transfected cells; host or cells: CHO cell membranes
T3 sequence (P29275 1-332): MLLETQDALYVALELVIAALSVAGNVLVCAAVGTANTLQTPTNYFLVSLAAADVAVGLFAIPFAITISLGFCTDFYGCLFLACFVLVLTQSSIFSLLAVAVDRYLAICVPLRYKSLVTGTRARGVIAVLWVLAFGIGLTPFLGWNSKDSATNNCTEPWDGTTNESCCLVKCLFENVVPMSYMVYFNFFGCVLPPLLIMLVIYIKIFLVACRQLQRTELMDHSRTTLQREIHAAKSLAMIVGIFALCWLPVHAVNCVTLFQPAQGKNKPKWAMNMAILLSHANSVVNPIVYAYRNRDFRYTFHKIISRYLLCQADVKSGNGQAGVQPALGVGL
As to the kind of experiment: Adenosine receptor TR-FRET binding assay (CA200645 displacement), A2b. The conditions noted are these: 30 nM CA200645, CHO cell membranes, 2 hours at room temperature.
Experimental: All FRET binding experiments were conducted at room temperature in white 384-well plates, in assay binding buffer containing 1×LabMed (Cisbio, France), 100 μg/mL saponin, 1% DMSO and 0.02% pluronic acid. Binding of the fluorescently labelled Adenosine receptor antagonist XAC (CA200645, FRET acceptor) to terbium-labelled A1, A2a, A2b and A3 adenosine receptors (FRET donors) was detected by time-resolved FRET due to the close proximity of the donor and acceptor in a binding event. To investigate the ability of unlabelled test compounds to bind to Adenosine A1, A2a, A2b and A3 receptors, dose response curves were constructed that determined the ability of a range of concentrations to inhibit the binding of 30 nM CA200645 to the A2b receptor and 100 nM CA200645 to the A1, A2a, and A3 receptor.
Serial dilution (1:3 dilutions) of test compounds in neat DMSO and transfer of a 400 nL sample of test compound into the assay plate was carried out using the Mosquito (TTP Labtech, UK). The compound samples were incubated for 2 hours at room temperature with a fixed concentration of CA200645 defined for each receptor (see above) and CHO cell membranes containing the human Adenosine A1 (0.5 μg/well), A2a (0.3 μg/well), A2b (1 μg/well) or A3 (1 μg/well) receptor in 40 μL of assay buffer. Total and non-specific binding of CA200645 was determined in the absence and presence of 10 μM XAC, respectively. Following 2 hours incubation, the level of CA200645 binding was detected on a Pherastar FSX (BMG Labtech, Germany) using standard TR-FRET settings. The terbium donor was excited with three laser flashes at a wavelength of 337 nm, and donor and acceptor emission was detected at 620 nm and 665 nm wavelengths, respectively. FRET ratios were obtained by multiplying the acceptor/donor ratio value by 10,000. Specific binding was determined by subtracting the non-specific binding FRET ratio from the total binding FRET ratio. Compound IC50 curves were analysed using GraphPad Prism 7.0 (GraphPad, USA) and Ki affinity values were determined from the obtained IC50 values using the method of Cheng and Prusoff.

For test [5], the target named is T4, human Adenosine A1 receptor (Homo sapiens, UniProt P30542).
T4 sequence (P30542 1-326): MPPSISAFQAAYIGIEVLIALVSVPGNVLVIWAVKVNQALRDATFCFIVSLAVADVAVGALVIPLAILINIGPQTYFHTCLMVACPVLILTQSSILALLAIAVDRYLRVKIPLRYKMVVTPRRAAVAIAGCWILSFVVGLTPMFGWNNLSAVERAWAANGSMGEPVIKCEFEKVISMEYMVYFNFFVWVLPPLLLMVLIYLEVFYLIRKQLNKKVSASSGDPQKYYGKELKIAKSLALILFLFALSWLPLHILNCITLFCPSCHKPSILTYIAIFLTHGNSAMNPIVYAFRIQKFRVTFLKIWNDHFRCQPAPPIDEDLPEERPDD
Briefly: Adenosine receptor TR-FRET binding assay (CA200645 displacement), A1.

pIC50, pKi: −log10 of the molar value.

T1 sequence (P29274 whole entry): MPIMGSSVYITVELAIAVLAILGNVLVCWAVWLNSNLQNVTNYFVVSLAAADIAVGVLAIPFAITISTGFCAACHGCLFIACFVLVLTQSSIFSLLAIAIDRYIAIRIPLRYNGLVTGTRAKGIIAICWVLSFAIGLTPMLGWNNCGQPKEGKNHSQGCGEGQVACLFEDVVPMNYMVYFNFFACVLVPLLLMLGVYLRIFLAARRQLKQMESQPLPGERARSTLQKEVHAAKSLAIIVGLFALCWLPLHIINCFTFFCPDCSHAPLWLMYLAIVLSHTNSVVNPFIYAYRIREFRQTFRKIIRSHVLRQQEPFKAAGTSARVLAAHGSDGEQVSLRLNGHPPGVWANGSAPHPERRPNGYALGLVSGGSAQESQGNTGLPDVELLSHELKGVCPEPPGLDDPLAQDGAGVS

As to `Cc1cc(-c2c(-c3cccc(C#N)c3)nn3ccc(C(=O)NC(C)(C)C)nc23)cc(Cl)n1` [Example 5.1], the pIC50 (commonly the negative decadic logarithm of the IC50, by convention in mol/L) in the test on human PBMCs is 7.70; in test [3] it was 5.54. Also, the pKi (commonly the Ki on a negative log10 scale, so that one unit is a factor of ten) in test [1] was 10.00; in test [2], less than 6.00; in test [4] it was 7.80; in test [5], 6.32.

As to `Cc1cc(-c2c(-c3cccc(C#N)c3)nn3ccc(C(=O)NCC(C)(C)O)nc23)cc(Cl)n1` [Example 5.2], the pIC50 is 8.40 in the test with human PBMCs and 6.55 in test [3]. The pKi in test [1] was 9.70; in test [2], less than 6.00; in test [4], 7.62; in test [5], 6.53.

Turning to `Cc1cc(-c2c(-c3cccc(C#N)c3)nn3ccc(C(N)=O)nc23)cc(Cl)n1` [Example 5.6], the pIC50 with human PBMCs was 7.80; in test [3], 5.07. Moreover, the pKi in test [1] was 8.34; in test [2], less than 6.00; in test [4] it was 7.80; in test [5], 6.52.

For the compound `Cc1cc(-c2c(-c3cccc(C#N)c3)nn3ccc(C(=O)N[C@@H](C)C(C)(C)O)nc23)cc(Cl)n1` [Example 6, 3-(2-Chloro-6-methyl-4-pyridyl)-2-(3-cyanophenyl)-N-[(1S)-2-hydroxy-1,2-dimethyl-propyl]pyrazolo[1,5-a]pyrimidine-5-carboxamide], the results for the pIC50 (with human PBMCs; in test [3]) were 8.70 and 7.52, respectively. The pKi was 10.00 in test [1], 6.02 in test [2], 8.22 in test [4] and 7.24 in test [5].

For `Cc1cc(-c2c(-c3cccc(C#N)c3)nn3ccc(C(=O)NCC4(O)CC4)nc23)cc(Cl)n1` [Example 6.2, 3-(2-Chloro-6-methyl-4-pyridyl)-2-(3-cyanophenyl)-N-[(1-hydroxycyclopropyl)methyl]pyrazolo[1,5-a]pyrimidine-5-carboxamide], the pIC50 was 8.10 in the test with human PBMCs and 6.08 in test [3]. For the same compound, the pKi in test [1] was 9.52; in test [2], 5.64; in test [4], 8.00; in test [5] it was 6.91.

On to `Cc1cc(-c2c(-c3cccc(C#N)c3)nn3ccc(C(=O)N[C@H](C)C(C)(C)O)nc23)cc(Cl)n1` [Example 6.4, 3-(2-Chloro-6-methyl-4-pyridyl)-2-(3-cyanophenyl)-N-[(1 R)-2-hydroxy-1,2-dimethyl-propyl]pyrazolo[1,5-a]pyrimidine-5-carboxamide], for which the pIC50 was 8.22 in the test with human PBMCs and 6.37 in test [3]. Also, the pKi in test [1] is 9.22; in test [2], 5.74; in test [4], 7.52; in test [5], 6.40.

Turning to `Cc1cc(-c2c(-c3cccc(C#N)c3)nn3ccc(C(=O)NCC(C)(O)CO)nc23)cc(Cl)n1` (stereo not drawn) [Example 6.9, 3-(2-Chloro-6-methyl-4-pyridyl)-2-(3-cyanophenyl)-N-(2,3-dihydroxy-2-methyl-propyl)pyrazolo[1,5-a]pyrimidine-5-carboxamide], the results for the pIC50 (in the test on human PBMCs; in test [3]) were 8.00 and 6.80, respectively. The pKi was 9.05 in test [1], less than 6.00 in test [2], 8.70 in test [4] and 6.63 in test [5].

With `Cc1cc(-c2c(-c3cccc(C#N)c3)nn3ccc(C(=O)NC[C@H](O)CO)nc23)cc(Cl)n1` [Example 6.13, 3-(2-Chloro-6-methyl-4-pyridyl)-2-(3-cyanophenyl)-N-[(2S)-2,3-dihydroxypropyl]pyrazolo[1,5-a]pyrimidine-5-carboxamide], the values for the pIC50 (in the test with human PBMCs; in test [3]) were 7.49 and 6.41, respectively. In addition, the pKi was 8.77 in test [1], less than 6.00 in test [2], 7.77 in test [4] and 6.37 in test [5].

In the case of `CO[C@H]1CN(C)C[C@@H]1NC(=O)c1ccn2nc(-c3cccc(C#N)c3)c(-c3cc(C)nc(Cl)c3)c2n1` [Example 6.14, 3-(2-Chloro-6-methyl-4-pyridyl)-2-(3-cyanophenyl)-N-[(3S,4S)-4-methoxy-1-methyl-pyrrolidin-3-yl]pyrazolo[1,5-a]pyrimidine-5-carboxamide], the pIC50 with human PBMCs is 7.74; in test [3], 6.43. The pKi was 8.96 in test [1], less than 6.00 in test [2], 7.22 in test [4] and 6.64 in test [5].

As for `Cc1cc(-c2c(-c3cccc(C#N)c3)nn3ccc(C(=O)NC[C@@H](O)CO)nc23)cc(Cl)n1` [Example 6.15, 3-(2-Chloro-6-methyl-4-pyridyl)-2-(3-cyanophenyl)-N-[(2R)-2,3-dihydroxypropyl]pyrazolo[1,5-a]pyrimidine-5-carboxamide], the negative logarithm of the IC50 (pIC50) in the test with human PBMCs is 7.85; in test [3], 6.62. In addition, the pKi in test [1] is 9.15; in test [2], less than 6.00; in test [4], 8.52; in test [5] it was 6.94.

Consider `Cc1cc(-c2c(-c3cccc(C#N)c3)nn3ccc(C(=O)N(C)CC(C)(C)O)nc23)cc(Cl)n1` [Example 6.18, 3-(2-Chloro-6-methyl-4-pyridyl)-2-(3-cyanophenyl)-N-(2-hydroxy-2-methyl-propyl)-N-methyl-pyrazolo[1,5-a]pyrimidine-5-carboxamide], for which the negative logarithm of the IC50 (pIC50) in the test on human PBMCs is 7.03; in test [3], 5.77. Moreover, the negative-log Ki (pKi) in test [1] was 8.38; in test [2], less than 6.00; in test [4], 7.89; in test [5], 6.90.

As for `Cc1cc(-c2c(-c3cccc(C#N)c3)nn3ccc(C(=O)N[C@H]4C[C@H](O)C4)nc23)cc(Cl)n1` [Example 6.19, 3-(2-Chloro-6-methyl-4-pyridyl)-2-(3-cyanophenyl)-N-(trans-3-hydroxycyclobutyl)pyrazolo[1,5-a]pyrimidine-5-carboxamide], the negative-log IC50 (pIC50) in the test on human PBMCs was 7.59; in test [3], 6.33. Moreover, the pKi in test [1] is 9.52; in test [2], less than 6.00; in test [4], 7.66; in test [5], 6.34.

Take `Cc1cc(-c2c(-c3cccc(C#N)c3)nn3ccc(C(=O)N[C@H]4C[C@@H](O)C4)nc23)cc(Cl)n1` [Example 6.20, 3-(2-Chloro-6-methyl-4-pyridyl)-2-(3-cyanophenyl)-N-(cis-3-hydroxycyclobutyl)pyrazolo[1,5-a]pyrimidine-5-carboxamide]: the results for the pIC50 (in the test with human PBMCs; in test [3]) were 7.44 and 6.25, respectively. In addition, the pKi in test [1] is 9.15; in test [2], less than 6.00; in test [4], 7.72; in test [5], 6.69.

Consider `Cc1cc(-c2c(-c3cccc(C#N)c3)nn3ccc(C(=O)NC(C)(C)C#N)nc23)cc(Cl)n1` [Example 6.21, 3-(2-Chloro-6-methyl-4-pyridyl)-N-(1-cyano-1-methyl-ethyl)-2-(3-cyanophenyl)pyrazolo[1,5-a]pyrimidine-5-carboxamide], for which the values for the pIC50 (in the test with human PBMCs; in test [3]) were 8.89 and 6.37, respectively. Also, the pKi in test [1] is 10.00; in test [2], less than 6.00; in test [4] it was 7.77; in test [5], 6.60.
